According to US11466044B2 (WAYNE STATE UNIVERSITY, priority 2017, dated 2022):
Values after ≈ are worked out from the molar mass of the structure shown.

Key:
[1] = tested on: MRSA; test: MIC by broth microdilution, MRSA isolates; type: cell-based; conditions: for MIC AG038 MRSA: clinical isolate AG038; for MIC AG039 MRSA AAC(6′)-I ANT(4′)-I: clinical isolate AG039, AAC(6′)-I ANT(4′)-I; for MIC AG042 MRSA AAC(6′)-I ANT(4′)-I APH(2′): clinical isolate AG042, AAC(6′)-I ANT(4′)-I APH(2′); for MIC AG044 MRSA: clinical isolate AG044
[2] = tested on: E coli wild type; test: MIC by broth microdilution, wild type E coli; type: cell-based; conditions: for MIC AG001 E. coli WT: clinical isolate AG001, WT; for MIC AG055 E. coli WT: clinical isolate AG055, WT
[3] = tested on: P aeruginosa; test: MIC by broth microdilution, P aeruginosa isolates; type: cell-based, Pseudomonas aeruginosa; conditions: for MIC AG031 P. aer. APH(3′)-II: clinical isolate AG031, APH(3′)-II; for MIC AG032 P. aer. APH(3′)-II: clinical isolate AG032, APH(3′)-II
[4] = tested on: E coli carrying specific resistance determinants; test: MIC by broth microdilution, E coli carrying specific resistance determinants; type: cell-based; conditions: for MIC AG003 E. coli AAC(3)-II: clinical isolate AG003, AAC(3)-II
[5] = tested on: wild type bacterial ribosomes; test: in-vitro translation assay, bacterial ribosomes; type: biochemical; conditions: Mycobacterium smegmatis ribosomes; read-out: IC50 Bacterial
Description: (§1) The antiribosomal activity of these compounds was investigated with cell-free translation assays using both wild type bacterial ribosomes and hybrid ribosomes carrying eukaryotic decoding A sites enabling the prediction of selectivity.

[6] = tested on: A1555G mutant mitochondrial ribosome (human chimeric); test: in-vitro translation assay, human chimeric ribosomes, A1555G mutant mitochondrial decoding site; type: biochemical; conditions: human mitochondrial decoding site with A1555G point mutation; read-out: IC50 Mitoch. A1555G
Description: as §1

[7] = tested on: cytosolic ribosome (human chimeric); type: biochemical; conditions: ribosomes with a human cytosolic decoding site; read-out: IC50 Cytosolic
Description: as §1

[8] = tested on: mitochondrial ribosome (human chimeric); type: biochemical; conditions: ribosomes with a human mitochondrial decoding site; read-out: IC50 Mitoch.
Description: as §1

[9] = tested on: rabbit reticulocyte ribosomes; test: in-vitro translation assay, rabbit reticulocyte ribosomes; type: biochemical; conditions: mammalian cytosolic ribosomes (rabbit)

SMILES	MIC AG038 MRSA [1] [µg/mL]	MIC AG039 MRSA AAC(6′)-I ANT(4′)-I [1] [µg/mL]	MIC AG042 MRSA AAC(6′)-I ANT(4′)-I APH(2′) [1] [µg/mL]	MIC AG044 MRSA [1] [µg/mL]	MIC AG001 E. coli WT [2] [µg/mL]	MIC AG055 E. coli WT [2] [µg/mL]	MIC AG031 P. aer. APH(3′)-II [3] [µg/mL]	MIC AG032 P. aer. APH(3′)-II [3] [µg/mL]	MIC AG003 E. coli AAC(3)-II [4] [µg/mL]	IC50 [5] [µM]	IC50 [6] [µM]	IC50 [7] [µM]	IC50 [8] [µM]	IC50 [9] [µM]	other results
NC[C@H]1O[C@H](O[C@H]2[C@H](O[C@@H]3O[C@H](CO)[C@@H](O)[C@H]3O)[C@@H](O)[C@H](N)C[C@@H]2N)[C@H](N)C[C@@H]1O [DC047]	8 (≈ 18.2 µM)	>128	>128	8 to 16	8 to 16	8 to 16	4 (≈ 9.12 µM)	4 (≈ 9.12 µM)	8 (≈ 18.2 µM)	0.1	119	293	325	157	
NC[C@H]1O[C@H](O[C@H]2[C@H](O[C@@H]3O[C@H](CNC=O)[C@@H](O)[C@H]3O)[C@@H](O)[C@H](N)C[C@@H]2N)[C@H](N)[C@@H](O)[C@@H]1O [DC130]	64 (≈ 133 µM)	>128	>128	128 (≈ 266 µM)	32 (≈ 66.5 µM)	32 (≈ 66.5 µM)	>128	>128	32 (≈ 66.5 µM)	0.24	190	359	364	152	
NCC1OC(OC2C(CNC=O)OC(OC3C(O)C(N)CC(N)C3OC3OC(CO)C(O)C(O)C3N)C2O)C(N)C(O)C1O (centres unmarked) [DC137]	4 (≈ 6.22 µM)	>128	>128	2 to 4	4 (≈ 6.22 µM)	2 to 4	≥128	128 (≈ 199 µM)	2 to 4	0.04	30	90	144	29	
NCC1OC(OC2C(CNC(N)=O)OC(OC3C(O)C(N)CC(N)C3OC3OC(CO)C(O)C(O)C3N)C2O)C(N)C(O)C1O (centres unmarked) [DC141]	4 to 8	>128	>128	4 (≈ 6.08 µM)	8 (≈ 12.2 µM)	4 (≈ 6.08 µM)	>128	>128	4 (≈ 6.08 µM)	0.03	28	89	70	29	
CCCC(O)C1OC(OC2C(N)CC(N)C(O)C2OC2OC(CO)C(OC3OC(CN)C(O)C(O)C3N)C2O)C(N)C(O)C1O (centres unmarked) [DC142]	4 (≈ 6.08 µM)	>128	>128	2 (≈ 3.04 µM)	8 (≈ 12.2 µM)	8 (≈ 12.2 µM)	>128	>128	8 (≈ 12.2 µM)	0.04	20	34	107	12	MIC pH430 WT ([2]; E. coli strain pH430, WT): 1 μg/ml; MIC AG036 ANT(4′,4′′) ([4]; E. coli strain AG036, ANT(4′,4′′)): 32 to 64 µg/mL; MIC AG037 APH(3′)-III ([4]; E. coli strain AG037, APH(3′)-III): >32 µg/mL; MIC AG103 armA ([4]; E. coli strain AG103, armA): 1 µg/mL (≈ 1.52 µM); MIC pH414 AAC(6′)-I ([4]; E. coli strain pH414, AAC(6′)-I): 1 μg/ml; MIC pH415 AAC(6′)-II ([4]; E. coli strain pH415, AAC(6′)-II): 1 μg/ml; MIC pH421 APH(3)-I ([4]; E. coli strain pH421, APH(3)-I): >32 μg/ml; MIC pH422 APH(3′)-II ([4]; E. coli strain pH422, APH(3′)-II): >32 μg/ml; MIC pH423 APH(3′)-VI ([4]; E. coli strain pH423, APH(3′)-VI): >32 μg/ml; MIC pH432 ANT(4′) ([4]; E. coli strain pH432, ANT(4′)): 1 μg/ml
